The values below come from a melting point compilation (Tetko et al.; mined from patent text by program, amines drawn as free bases though some values may be those of a salt).

Some results are limits rather than exact numbers.

As a reminder, the melting point is the temperature, or range, at which the solid turns liquid.

As to `CN(C)CCNC(=O)c1cccc(-c2ccc3c(c2)N(Cc2ccc(Cl)cc2Cl)CC3)c1`, the melting point lay within 122 to 123 °C.
To `CC(C(=O)CCl)c1ccc(-c2ccccc2)c(F)c1` (stereo not given) belongs 57 to 59 °C; to `O=C(C(c1ccccc1)n1cnc2[nH]ncc2c1=S)N1CCCCCC1` (stereo not given), over 230 °C; to `CCOC(=O)COc1ccc(C(=O)c2ccccc2O)c(Cl)c1Cl`, 108 to 110 °C.
To `Cc1cc(C)c(Nc2nc(C)ncc2S(=O)(=O)c2ccc(N3CCOCC3)cc2)c(C)c1` belongs 221 to 223 °C.
For the molecule `COC(=O)C(=O)NC(=O)CC(F)=C(F)F`, the melting point was in the range of 33 to 34 °C.
Take `CNCCCCN1CC[C@H](NC(=O)c2cc(Cl)c(N)cc2OC)[C@H](OC)C1` (relative stereo): the melting point stood at 129 °C.
In the case of `Cc1cc(C(O)(COc2ccc(Cl)cc2)C(F)(F)F)ccc1NC(=O)c1cccc(I)c1C(=O)NC(C)C` (stereo not given), the melting point lay within 90 to 95 °C.
To `CN(CCCCC(=O)O)c1ccc([N+](=O)[O-])cc1C=O` belongs 107 to 108 °C.
Next, `CCCCCCCCCCCCN1CN=C(NC(=O)Nc2c(C(C)C)cccc2C(C)C)N1`: 128 to 140 °C; `CC(C)(C)c1ccc(P2Oc3ccccc3-c3ccccc32)cc1` (stereo not given): 90 to 92 °C; `O=[N+]([O-])c1ccc(OCCCN2CCC(C(O)(c3ccc(F)cc3)c3ccc(F)cc3)CC2)cc1`: 93.5 to 94.5 °C.
In the case of `CC1(N)CN(c2cc3c(cc2F)c(=O)c(C(=O)O)cn3C2CC2)C1`, the melting point lay within 293 to 295 °C.
Next, `CCN(CC)c1nc(C)nc(SC)c1NC(=O)CBr`: 173 to 174 °C; `CNC(=NC(=O)NC1CCCCC1)N(C)C`: 121 to 124 °C; `Cc1nc(C(N)=O)c2n1-c1ccc([N+](=O)[O-])cc1C(c1ccccc1Cl)=NC2`: over 300 °C.
The molecule `CC(=O)NCC1CC1c1c(-c2ccccc2)ccc2nn(C)cc12` (stereo not given) had a melting point of 156 to 158 °C.
To `O=[N+]([O-])c1cc(F)c(N2CCNCC2)cc1Cl` belongs 91.5 °C.
Molecule `CN1C(C)(C)CC(OC(=O)CCc2cc(-n3nc4ccc(Cl)cc4n3)c(O)c(C(C)(C)C)c2)CC1(C)C` returned a melting point of 150 to 158 °C.
To `COc1ccc(C(=O)N(C)C2N(C)C(c3ccc(F)cc3)=NC2(C(F)(F)F)C(F)(F)F)cc1` (stereo not given) belongs 136 to 137 °C; to `C[C@@H](Nc1ncnc2cc(OC3CCC3)c([N+](=O)[O-])cc12)c1ccccc1`, 108 to 110 °C.
Next, `COc1ccc(OC)c(-c2ccc(C(C)=NOCCOc3ccc(CC4SC(=O)NC4=O)cc3)cc2)c1` (stereo not given): 47 to 52 °C; `CC(c1ccc(Cl)cc1)N1CCC2(CC1)Cc1ccccc1O2` (stereo not given): 64 to 66 °C.
To `COC(=O)C(=O)N1C(=O)[C@@H](NC(=O)OC(C)(C)C)[C@@H]1OC(C)=O` belongs 144 to 146 °C.
`[N-]=[N+]=C1C(=O)CC2CCCCC2C1=O` (stereo not given) yielded a melting point of 81 to 83 °C.
Next, `Cc1cc(C)cc(C(=O)OC2CCCCC2=O)c1` (stereo not given): 65 to 66 °C; `COc1cccc(C(C)c2ccc(-c3cnn4c(O)ncnc34)cc2)c1` (stereo not given): 282 to 285 °C.
Next, `O=C(CCc1ccccc1)NCCCn1ccnc1`: 90 to 92 °C.
For the molecule `CC(=O)Nc1ccc(S(=O)(=O)c2cc(Br)nc(Br)c2)cc1`, the melting point was 211 °C.
To `Cc1cc(SCc2ccc(-c3ccc(C(F)(F)F)cc3)cc2)ccc1OCC(=O)O` belongs 140 to 141 °C; to `CCCCc1oc2ccccc2c1C(=O)Nc1ccc2c(Br)c(OCc3nn[nH]n3)ccc2c1`, 242 to 245 °C; to `CC(C)(C)COc1ccc(NC(=O)c2cc3ccccc3n2CC(=O)O)cc1C#N`, 194 to 195 °C.
Turning to `O=C1c2ccccc2C(=O)N1Cc1cc(F)ccc1[N+](=O)[O-]`, the melting point fell in the range of 198 to 200 °C.
`COc1ccc(-c2cc(N)c(Cl)c(C(=O)O)n2)cc1` had a melting point of 192 °C.
To `CCOC(=O)c1nc(NC(C)=O)sc1Cc1ccc(SC)cc1` belongs 205 to 206 °C; to `Nc1cc2c(cc1N)C1CC2CN(C(=O)C(F)(F)F)C1`, 129 to 131 °C.
Next, `N#Cc1cn(COC(CO)CO)c2ncnc(N)c12`: 195 °C; `CCCCCCCCCCOc1ccc(-c2ccc(C(C)=O)cc2)cc1`: 102 to 104 °C; `CC/C(=C(\c1ccc(/C=C/C(=O)O)cc1)c1ccc(OC(=O)c2ccno2)cc1)c1ccccc1`: 141 to 142 °C.
To `CN(C)c1ccc2c(c1)CNC2=O` belongs 122 to 124 °C; to `COC(=O)c1ccc2nc(C(C)C)c(C(C)C)nc2c1`, 53 to 55 °C; to `CCOC(=O)Nc1ccc(N2N=C(C)C(=CNc3ccccc3OC)C2=O)cc1`, 212 °C.
Molecule `Cc1nc2cc3c(cc2o1)C1(CO3)C(=O)N(CC2CCCO2)c2ccccc21` (stereo not given) returned a melting point of 188 to 190 °C.
To `CCCc1c(C(=O)NCc2ccc3cc(OCC(=O)O)ccc3c2)cnn1-c1ccccc1` belongs 175 to 177 °C; to `O=[N+]([O-])c1c(F)cc(N2CCOCC2)cc1F`, 112 to 114 °C; to `CCOC(=O)Cn1c(=O)c(=O)[nH]c2cc(Br)ccc21`, 282 to 283 °C.
Next, `CCCCC12CCC3=C(CCc4cc(OC)ccc43)C1CCC2O` (stereo not given): 90 to 100 °C; `OC1CCNC(Cc2ccccc2)C1` (stereo not given): 114 °C.
To `COc1ccc(C(=O)c2cccs2)c2occ(C)c12` belongs 131 to 134 °C; to `CC(C)(C)OC(=O)[C@@H](CCc1ccc([N+](=O)[O-])cc1)OS(=O)(=O)c1ccc([N+](=O)[O-])cc1`, 97 to 98 °C.
`Cc1cc(C)c(Nc2nc(C)ccc2S(=O)(=O)c2ccc(OCc3cccc(F)c3F)cc2)c(C)c1` had a melting point of 136 to 138 °C.
Next, `CN(Cc1ccc(-c2ccc(O)c(Br)c2)cc1)C(=O)c1cn(Cc2ccccc2)c2ccccc12`: 164 to 170 °C; `CCCn1nc(C(C)C)c(C(=O)OCc2cccc(C(=O)c3ccccc3)c2)c1Cc1ccc(-c2ccccc2S(=O)(=O)NC(=O)OC(C)(C)C)c(F)c1`: 55 to 59 °C; `COc1cc(C(C)(C)O)c(OCc2ccccc2)cc1N1CCN(Cc2ccccc2)CC1`: 94 to 96 °C.
Next, `CC(C)Cc1nn(C)c(=O)c2cn(Cc3ccncc3)cc12`: 91 to 93 °C; `C=CCOc1cc([N+](=O)[O-])ccc1[N+](=O)[O-]`: 66.5 to 68 °C.
Next, `COC(=O)CC/C(C)=C/Cc1c(NC(=O)C(F)(F)F)c2c(c(C)c1OC)COC2=O`: 107 to 109 °C; `Cn1sc(=O)n(C)c1=O`: 64 to 65 °C.
For the molecule `O=C(O)c1cn2c3c(c(N4CCCC4)c(F)cc3c1=O)CCN2Cc1ccccc1`, the melting point lay in the range of 174 to 180 °C.
For the molecule `COc1cccc(CNC(=O)c2cc3c(=O)n(CCOc4ccc(Cl)cc4)c(=O)n(C)c3s2)c1`, the melting point was 109 to 112 °C.
Next, `CC(C)C(NC(=O)OC(C)(C)C)C(=O)NC(C(=O)OCC1OC(n2cc(C=CBr)c(=O)[nH]c2=O)CC1Cl)C(C)C` (stereo not given): 102 to 103 °C; `COc1ccc2cc(CNCCNC(=O)C34CC5CC(CC(C5)C3)C4)oc2c1OC`: 206 to 207 °C.
Next, `COc1nc2cc(Cl)c(Cl)c(-n3c(CN4CCOCC4)nnc3-c3cccnc3)c2nc1OC`: 178 to 179 °C; `CCOC(=O)CC(O)(CC)c1cc2n(c(=O)c1C)Cc1cc3ccccc3nc1-2` (stereo not given): 185 to 188 °C; `CC(=O)N1CCC(O)(C(=O)c2cc(F)ccc2F)CC1`: 118 to 120 °C.
`COc1ccc(CCc2c(Cl)cncc2Cl)c2c1OC(C)(C)C2` came in with a melting point of 128 to 133 °C.
Next, `CCCc1ccc(-c2cc(F)c(-c3ccc(CC)s3)c(F)c2)cc1`: 45 °C; `CCOc1cc(C(CC(=O)O)N2Cc3cccc(NC(C)=O)c3C2=O)ccc1OC(F)F` (stereo not given): 105 to 107 °C; `CCc1cn(C2CCC(CO)O2)c(=O)[nH]c1=O` (stereo not given): 109 to 113 °C.
Next, `Cc1ccc(COc2ccc(C(=O)NC[C@@H](C(=O)NO)N3CCN(S(C)(=O)=O)CC3)cc2)cc1`: 180 °C.
To `CC(C)(C)[Si](C)(C)Oc1ccc2c3c1OC1C(C4OCCO4)CCC4(O)C(C2)N(CC2CC2)CCC314` (stereo not given) belongs 108 to 109 °C.
Turning to `Cc1nc(NCCSCc2csc(CN(C)C)n2)[nH]c(=O)c1Cc1cccnc1`, the melting point was in the range of 130 to 131 °C.
For `COc1ccc(/C=C(\C#N)Cc2ccccc2)cc1OC1CCCC1`, the melting point is 111 to 112 °C.
Next, `COc1ccc(NS(=O)(=O)c2cc(C)cc(C(C)(C)C)c2O)cc1`: 130 to 134 °C.
Molecule `COC(=O)c1ccc2oc(CCCc3cc4cc(C(=O)OC)ccc4o3)cc2c1` registered a melting point of 87 to 88 °C.
Next, `COc1ccc(-c2ncn(-c3cc(OC)c(OC)c(OC)c3)c2-c2cc(OC)c(OC)c(OC)c2)cc1OC`: 160 to 161 °C; `COC(=O)c1ccc(Cn2c(C(=O)NC(N)=S)cc3cc(C)cc(C)c32)cc1`: 222 to 224 °C.
Next, `COC(=O)c1ccc2ccn(Cc3ccc(OCc4ccc5ccccc5n4)cc3)c2c1`: 125 to 126 °C; `c1cnc2ncncc2c1`: 249 to 252 °C.
To `N#Cc1c(NC(=O)C2CCCCC2)sc(-c2ccccc2)c1[N+](=O)[O-]` belongs 213 to 214 °C; to `CC1(C)CN(C(=O)Nc2cccnc2)c2cc(C#N)ccc21`, 220 to 222 °C.
`CC(C)OC(=O)C(C)NC(=O)C(N)(CC(=O)O)NC(=O)C(C)C` (stereo not given) gave a melting point of 176 to 178 °C.
On to `C#CC[C@H](c1nc2cc(Cl)ccc2c(=O)n1Nc1ccccc1)N(CCCN)C(=O)c1ccc(C)c(F)c1F`, for which the melting point is 175 to 180 °C.
For the molecule `CC(C)C(OC(=O)/C=C/c1ccccc1)OC(=O)NC1(C(=O)O)CC1` (stereo not given), the melting point lay in the range of 148 to 150 °C.
Next, `COC(=O)C1=C(C)NC(C)=C(C(=O)OCCN(O)CCC(c2ccccc2)c2ccccc2)C1c1cccc([N+](=O)[O-])c1` (stereo not given): 100 to 105 °C.
